# Patent US20240148900A1, “IMMUNOSTIMULATORY CYCLIC DI-NUCLEOTIDE DELIVERY SYSTEM COMPOSITIONS AND METHOD OF USE THEREOF” (VIRGINIA COMMONWEALTH UNIVERSITY, priority 2021, published 2024)
# Columns and labels:
# [1] = Stability of CDG in 10% FBS-supplemented cell culture medium; type: in vitro ADME; conditions: 7 days in cell culture medium with 10% serum, 37° C., absorption at 254 nm
# From the text: FIG. 1A-H. Characterization of STING-NVs. (a) UV-vis absorbance spectra of PEG-b-PLA NPs, 5c-i-motif DNA, and 5c-NPs. […] Lane legends: 1: 25 bp DNA ladder; 2: 9C-i-motif; 3: 3C-NPs; 4: 5C-NPs; 5: 7C-NPs; 6: 9C-NPs. (c) DLS graphs showing the hydrodynamic diameters of 5C-NPs (79±34 nm, PDI 0.157) and STING-NVs (81±32 nm, PDI 0.131). (d) A TEM image of STING-NVs. (e) Zeta potential of blank NPs, CDG-loaded NPs, and Lipo-CDG. STING-NVs: CDG-loaded 5C-NPs. (f) Stability of free CDG and CDG loaded in STING-NVs over 7-day incubation in 10% FBS-supplemented cell culture medium (37° C.). A254nm: 254 nm absorption from CDG; A560nm: 560 nm absorption from medium as an internal reference. (g, h) MST traces (g) and fitting curve (h) of the kinetic interaction between 5C-NPs and CDG at pH 7.4. Data represent mean±standard deviation (SD) (n=3).
# The ability of STING-NVs to promote the biostability of CDG is presumably due to the steric hindrance of i-motif-NPs that prevent the access of nucleases. Using HPLC and microscale thermophoresis (MST), we further studied the binding of CDG with 5C-i-motifs, which is the basis for CDG loading into i-motif-modified NPs. In HPLC, relative to free CDG and 5C-i-motif, the delayed elution time of physically mixed CDG and 5C-i-motif indicated the complexation of CDG and 5C-i-motif (FIG. 10). […]
# RAW264.7 macrophages = assay: Cell uptake of FluoCDG by flow cytometry; type: cell-based, murine; conditions: FluoCDG 0.5 μg/mL; free CDG over 2 h, formulations 0.5 h post incubation
# Experimental: CDG release from STING-NVs. First, STING-NVs were dispersed in 1 mL of 1×PBS at different pH and agitated at 200 rpm. Then the mixture was ultra-filtrated at each hour point. The filtrate was taken for CDG detection, and the same volume of fresh buffer was added back to the residual mixture. The amount of released CDG in the filtrate was determined by measuring the absorption at 254 nm using a UV-Vis spectrometer. Lipo-CDG Synthesis. DOTAP, cholesterol, and DSPE-PEG(2000) were purchased from Avanti Polar Lipids. Lipids were mixed at molar ratios of 1:1:0.2 DOTAP:cholesterol:DSPE-PEG(2000). Lipid mixtures were dried under a nitrogen stream in glass test tubes. The resulting lipid films were placed in a desiccation system overnight. […] The CDG content of the liposomes was determined by measuring the absorbance peak of the liposomes at 254 nm, corresponding to the maximum absorbance of CDG, subtracting the lipid contribution to absorbance at this wavelength. […] Secreted IFN-α was quantified with the LumiKine Xpress mIFN-α enzyme-linked immunosorbent assay kit (InvivoGen). Secreted IL-6 and IL-12 were quantified with the Mouse IL-6 Quantikine™ ELISA Kit (R&D Systems). […] Cells were analyzed for fluorescein signal (from fluorescein-modified CDG) on the CytoFLEX LX (Beckman Coulter) flow cytometer.
compound,measurement,setting,value
"Nc1nc2c(ncn2[C@@H]2O[C@@H]3COP(=O)(O)O[C@H]4[C@@H](O)[C@H](n5cnc6c(=O)[nH]c(N)nc65)O[C@@H]4COP(=O)(O)O[C@H]3[C@H]2O)c(=O)[nH]1 [free CDG, cyclic dimeric guanosine monophosphate]",intact CDG,[1],2.3%
same,FluoCDG fluorescence signal enhancement,RAW264.7 macrophages,only slight FluoCDG signal enhancement
